Assay results as given in patent publication US8030443B2, “Squamous cell carcinoma antigen-derived peptide binding to HLA-A24 molecule” (Kurume University, priority 2005, dated 2011).

Test system: PBMCs from HLA-A24^+ cancer patients and HDs
Experiment: Induction of peptide-specific CTLs from PBMCs, IFN-γ ELISA against peptide-pulsed C1R-A24 cells
Type: cell-based, human
Conditions: for Total: healthy donors with induction of peptide-specific CTLs / donors tested: 8 HLA-A24^+ healthy donors; for Total: healthy donors with induction of peptide-specific CTLs / donors tested / Total: cancer patients with induction of peptide-specific CTLs / patients tested: positive when more than 50 pg/ml IFN-γ with p<0.05; for Total: cancer patients with induction of peptide-specific CTLs / patients tested: 20 HLA-A24^+ cancer patients; for IFN-γ Production: HIV peptide background subtracted, only significant values shown, — otherwise
Description: PBMCs from HLA-A24^+ cancer patients and HDs were used for the CTL induction assay. For the induction of peptide-specific CTLs, PBMCs (1.5×10^5 cells/well) were incubated with 10 μg/ml of each peptide in four different wells of a 96-well microculture plate (Nunc) in 200 μl of culture medium containing interleukin (IL)-2, as reported previously (Non-Patent Literature 18). Every 3 or 4 days, half the culture medium was removed and replaced with new medium containing the corresponding peptide (20 μg/ml) and 100 U/ml IL-2. On the 14th day, the cells from each well were independently harvested, washed, separated into four wells, and tested for their ability to produce interferon (IFN)-γ in response to C1R-A24 cells pulsed with a corresponding peptide or a negative control HIV peptide in the duplicate assays. C1R-A24 is an HLA-A2402-expressing subline of C1R lymphoma (Dr. M. Takiguchi, Kumamoto University, Japan). After an 18-h incubation of C1RA-24, the supernatant was collected, and the level of IFN-γ was determined by ELISA.
Whether or not the SCCA107, SCCA112, SCCA215, and SCCA286 peptides had the potential to induce peptide-specific CTLs from the PBMCs of 20 HLA-A24^+ cancer patients and 8 HLA-A24^+ healthy donors was investigated. The group of twenty cancer patients consisted of 4 esophageal SCC patients, 4 cervical SCC patients, 4 lung cancer patients (2 adenocarcinomas, one small cell carcinoma, and one squamous cell carcinoma), 4 gastric adenocarcinoma patients, and 4 colon adenocarcinoma patients. The assay was carried out in quadruplicate. The cultured cells in one well were separated into 4 wells, and two wells were used for the SCCA peptide-pulsed C1R-A24 cells, and the other two were used for the HIV peptide-pulsed C1R-A24 cells.

Sequence	Total: healthy donors with induction of peptide-specific CTLs / donors tested	Total: cancer patients with induction of peptide-specific CTLs / patients tested	Total: cancer patients with induction of peptide-specific CTLs / patients tested (listed as SCCA286)	IFN-γ Production (PBMCs of HLA-A24^+ patient 4, Esophagus)	IFN-γ Production (PBMCs of HLA-A24^+ patient 7, Cervix of uterus)	Total: cancer patients with induction of peptide-specific CTLs / patients tested (listed as SCCA107)	IFN-γ Production (PBMCs of HLA-A24^+ healthy donor 7)	IFN-γ Production (PBMCs of HLA-A24^+ patient 2, Esophagus)	IFN-γ Production (PBMCs of HLA-A24^+ patient 6, Cervix of uterus)	IFN-γ Production (PBMCs of HLA-A24^+ patient 13, Stomach)
RFKVEESYDL (SCCA 286-295 peptide) [SCCA-derived peptide, position 286-295]	0/8	3/20	3 of 20	97 pg/mL	169 pg/mL	–	–	–	–	–
LFGEKTYLFL (SCCA 107-116 peptide) [SCCA-derived peptide, position 107-116]	1/8	3/20	–	–	–	3 of 20	259 pg/mL	84 pg/mL	105 pg/mL	500 pg/mL
